Laboratory results from patent publication US10053461B2 (Hoffmann-La Roche Inc., priority 2015, dated 2018).
Read-outs that look alike come from different tables or passages of the source.

How the values were obtained:
HBsAg [1] = assay: microbe, parasite or virus in culture; details: Hepatitis B virus, HepG2.2.15
Description: (§1) HepG2.2.15 cells (Acs et al. Proc Natl Acad Sci USA, 84, (1987), 4641-4), a constitutively HBV-expressing cell line were cultured in DMEM+Glutamax-I medium (Invitrogen, Carlsbad, Calif., USA), supplemented with 10% fetal bovine serum (Invitrogen) and G418 (Invitrogen) at a final concentration of 200 mg/L and maintained in 5% CO2 at 37° C.
(§2) HepG2.2.15 cells were seeded in duplicate into white, 96-well plates at 1.5×10^4 cells/well. The cells were treated with a three-fold serial dilution series of the compounds in DMSO. The final DMSO concentration in all wells was 1% and DMSO was used as no drug control.
(§3) The HBsAg chemiluminescence immunoassay (CLIA) kit (Autobio Diagnostics Co., Zhengzhou, China, Catalog number: CL0310-2) was used to measure the levels of secreted HBV antigens semi-quantitatively. For the detection 50 μL/well culture supernatant was used and HBsAg was quantified using HBsAg chemiluminescence immunoassay (CLIA) kit (Autobio Diagnostics Co., Zhengzhou, China, Catalog number: CL0310-2), 50 μL of the supernatant was transferred to the CLIA assay plate and 50 μL of enzyme conjugate reagent was added into each well. The plates were sealed and gently agitated for 1 hour at room temperature. The supernatant-enzyme-mixture was discarded and wells were washed 6 times with 300 μL of PBS. The residual liquid was removed by plating the CLIA plate right side down on absorbent tissue paper. 25 μL of substrates A and B were added to each well. Luminance was measured using a luminometer (Mithras LB 940 Multimode Microplate Reader) after 10 minutes incubation. Dose-response curves were generated and the IC50 value was extrapolated by using the E-WorkBook Suite (ID Business Solutions Ltd., Guildford, UK). The IC50 was defined as the compound concentration (or conditioned media log dilution) at which HBsAg secretion was reduced by 50% compared to the no drug control.
(§4) The compounds of the present invention were tested for their activity to inhibit HBsAg as described herein.

HBV DNA = HBV DNA assay (real-time qPCR of extracellular HBV DNA, HepG2.2.15 cells); format: cell-based; details: Hepatitis B virus, 144 h; Anti HBV DNA production activity in HepG2.2.15 cells, six days
Description: The assay employs real-time qPCR (TaqMan) to directly measure extracellular HBV DNA copy number. HepG2.2.15 cells were plated in 96-well microtiter plates. Only the interior wells were utilized to reduce “edge effects” observed during cell culture, the exterior wells were filled with complete medium to help minimize sample evaporation. On the following day, the HepG2.2.15 cells were washed and the medium was replaced with complete medium containing various concentrations of a test compound in triplicate. 3TC was used as the positive control, while media alone was added to cells as a negative control (virus control, VC). Three days later, the culture medium was replaced with fresh medium containing the appropriately diluted drug. Six days following the initial administration of the test compound, the cell culture supernatant was collected, treated with pronase and then used in a real-time qPCR/TaqMan assay to determine HBV DNA copy numbers. Antiviral activity was calculated from the reduction in HBV DNA levels (IC50).

HBsAg [2] = details: HBsAg secretion reduced by 50% vs no drug control, HepG2.2.15 cells
Description: as §1, §2, §3, §4

| Structure (SMILES) | IC50 (HBsAg [1]) [µM] | IC50 (HBV DNA) [µM] | IC50 (HBsAg [2]) [µM] |
| --- | --- | --- | --- |
| COc1cc2c(cc1OCc1ccccc1)[C@H]1CCC(C)(C)[C@H]1n1cc(C(=O)O)c(=O)cc1-2 (relative stereo) [Example 3, Cis-11-(benzyloxy)-10-methoxy-3,3-dimethyl-7-oxo-1,2,3,3a,7,12b-hexahydrocyclopenta[c]pyrido[2,1-a]isoquinoline-6-carboxylic acid] | 0.003 | 0.04 | – |
| COCCCOc1cc2c(cc1Cl)-c1cc(=O)c(C(=O)O)cn1[C@@H]1CCCCC[C@H]21 (relative stereo) [Example 28, cis-13-chloro-12-(3-methoxypropoxy)-2-oxo-2,5a,6,7,8,9,10,10a-octahydrocyclohepta[c]pyrido[2,1-a]isoquinoline-3-carboxylic acid] | 0.003 | < 0.032 | – |
| COCCCOc1cc2c(cc1OC)-c1cc(=O)c(C(=O)O)cn1[C@H]1CCN(C(=O)OCc3ccccc3)C[C@H]21 (relative stereo) [Example 29, Trans-2-((benzyloxy)carbonyl)-11-methoxy-12-(3-methoxypropoxy)-8-oxo-2,3,4,4a,8,13b-hexahydro-1H-benzo[c]pyrido[1,2-a][1,6]naphthyridine-7-carboxylic acid] | 0.152 | – | – |
| COCCCOc1cc2c(cc1OC)-c1cc(=O)c(C(=O)O)cn1[C@H]1CCN(C(=O)OCc3ccccc3)C[C@@H]21 (relative stereo) [Example 30, cis-2-((benzyloxy)carbonyl)-11-methoxy-12-(3-methoxypropoxy)-8-oxo-2,3,4,4a,8,13b-hexahydro-1H-benzo[c]pyrido[1,2-a][1,6]naphthyridine-7-carboxylic acid] | 0.564 | – | – |
| COc1cc2c(cc1OCc1ccccc1)[C@@H]1CCCC[C@@H]1n1cc(C(=O)O)c(=O)cc1-2 (relative stereo) [Example 32, cis-12-benzyloxy-11-methoxy-8-oxo-1,2,3,4,4a,13b-hexahydropyrido[1,2-f]phenanthridine-7-carboxylic acid] | 0.044 | – | – |
| COCCCOc1cc2c(cc1OC)-c1cc(=O)c(C(=O)O)cn1[C@@H]1CCOC[C@@H]21 (relative stereo) [Example 33, Trans-11-methoxy-12-(3-methoxypropoxy)-8-oxo-1,3,4,4a,8,13b-hexahydropyrano[4,3-c]pyrido[2,1-a]isoquinoline-7-carboxylic acid] | 0.265 | – | – |
| COCCCOc1cc2c(cc1OC)-c1cc(=O)c(C(=O)O)cn1[C@@H]1CCOC[C@H]21 (relative stereo) [Example 34, cis-11-methoxy-12-(3-methoxypropoxy)-8-oxo-1,3,4,4a,8,13b-hexahydropyrano[4,3-c]pyrido[2,1-a]isoquinoline-7-carboxylic acid] | 0.186 | – | – |
| COCCCOc1cc2c(cc1OC)-c1cc(=O)c(C(=O)O)cn1[C@@H]1CCS(=O)(=O)C[C@@H]21 (relative stereo) [Example 37, Trans-11-methoxy-12-(3-methoxypropoxy)-8-oxo-1,3,4,4a,8,13b-hexahydropyrido[2,1-a]thiopyrano[4,3-c]isoquinoline-7-carboxylic acid 2,2-dioxide] | 2.2 | – | – |
| COc1cc2c(cc1C)[C@H]1CCC(C)(C)[C@H]1n1cc(C(=O)O)c(=O)cc1-2 (relative stereo) [Example 38, Cis-10-methoxy-3,3,11-trimethyl-7-oxo-1,2,3,3a,7,12b-hexahydrocyclopenta[c]pyrido[2,1-a]isoquinoline-6-carboxylic acid] | 0.036 | – | – |
| CCCc1cc2c(cc1OC)-c1cc(=O)c(C(=O)O)cn1[C@H]1[C@@H]2CCC1(C)C (relative stereo) [Example 40, Cis-10-methoxy-3,3-dimethyl-7-oxo-11-propyl-1,2,3,3a,7,12b-hexahydrocyclopenta[c]pyrido[2,1-a]isoquinoline-6-carboxylic acid] | 0.019 | – | – |
| COc1cc2c(cc1N1CCCC1)[C@H]1CCC(C)(C)[C@H]1n1cc(C(=O)O)c(=O)cc1-2 (relative stereo) [Example 41, Cis-10-methoxy-3,3-dimethyl-7-oxo-11-(pyrrolidin-1-yl)-1,2,3,3a,7,12b-hexahydrocyclopenta[c]pyrido[2,1-a]isoquinoline-6-carboxylic acid] | < 0.0016 | – | – |
| COc1cc2c(cc1OCc1ccccc1)[C@H]1CCC(C)(C)[C@H]1n1cc(C(=O)O)c(=O)cc1-2 [Example 4, (3aS,12bR)-11-(benzyloxy)-10-methoxy-3,3-dimethyl-7-oxo-1,2,3,3a,7,12b-hexahydrocyclopenta[c]pyrido[2,1-a]isoquinoline-6-carboxylic acid] | – | – | 0.003 |
| COc1cc2c(cc1OCc1ccccc1)[C@@H]1CCC(C)(C)[C@@H]1n1cc(C(=O)O)c(=O)cc1-2 [Example 5, (3aR,12bS)-11-(benzyloxy)-10-methoxy-3,3-dimethyl-7-oxo-1,2,3,3a,7,12b-hexahydrocyclopenta[c]pyrido[2,1-a]isoquinoline-6-carboxylic acid] | 0.308 | – | – |
| CCc1cc2c(cc1OC)-c1cc(=O)c(C(=O)O)cn1[C@H]1[C@@H]2CCC1(C)C [Example 39] | 0.02 | – | – |
